In the supplement of paper PMC10307832:

How the values were obtained:
Test in all cases: relative viability (nuclei count vs DMSO), 5 days (fraction); higher = more cells survive
FH535 + Phenformin = compound: CC1=C(C=CC(=C1)[N+](=O)[O-])NS(=O)(=O)C2=C(C=CC(=C2)Cl)Cl [FH535] + N=C(N)NC(=N)NCCc1ccccc1 [Phenformin] (partner 250 µM)
Summary of the method: (§1)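 After 5 days of treatment, lung cancer cells in 1536-well plates were fixed and stained in a single step (final 0.05% Triton X-100, 1% formaldehyde, 1 ug/ml Hoechst) and their nuclei counted on 4× images. Treatment had been applied by pin tool the day after seeding as one drug alone or as a fixed anchor-drug dose with five library-drug doses (not always all listed) in √10 steps. Relative viability is the nuclei count of treated wells divided by that of vehicle wells, and values are medians of duplicate plates.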

FH535 + Pemetrexed = compound: CC1=C(C=CC(=C1)[N+](=O)[O-])NS(=O)(=O)C2=C(C=CC(=C2)Cl)Cl [FH535] + Nc1nc2[nH]cc(CCc3ccc(C(=O)N[C@@H](CCC(=O)O)C(=O)O)cc3)c2c(=O)[nH]1 [Pemetrexed] (partner 0.2 µM)
Summary of the method: as §1

FH535 + Bortezomib = compound: CC1=C(C=CC(=C1)[N+](=O)[O-])NS(=O)(=O)C2=C(C=CC(=C2)Cl)Cl [FH535] + CC(C)C[C@H](NC(=O)[C@H](Cc1ccccc1)NC(=O)c1cnccn1)B(O)O [Bortezomib] (partner 0.002 µM)
Summary of the method: as §1

FH535 + Tozasertib = compound: CC1=C(C=CC(=C1)[N+](=O)[O-])NS(=O)(=O)C2=C(C=CC(=C2)Cl)Cl [FH535] + Cc1cc(Nc2cc(N3CCN(C)CC3)nc(Sc3ccc(NC(=O)C4CC4)cc3)n2)n[nH]1 [Tozasertib] (partner 0.1 µM)
Summary of the method: as §1

FH535 + Linsitinib = compound: CC1=C(C=CC(=C1)[N+](=O)[O-])NS(=O)(=O)C2=C(C=CC(=C2)Cl)Cl [FH535] + C[C@]1(O)C[C@@H](c2nc(-c3ccc4ccc(-c5ccccc5)nc4c3)c3c(N)nccn32)C1 [Linsitinib] (partner 1 µM)
Summary of the method: as §1

Cell Line | relative viability (FH535 + Phenformin; first compound 0.04 µM) | relative viability (FH535 + Phenformin; first compound 0.1265 µM) | relative viability (FH535 + Phenformin; first compound 0.4 µM) | relative viability (FH535 + Phenformin; first compound 1.265 µM) | relative viability (FH535 + Pemetrexed; first compound 0.04 µM) | relative viability (FH535 + Pemetrexed; first compound 0.1265 µM) | relative viability (FH535 + Pemetrexed; first compound 0.4 µM) | relative viability (FH535 + Pemetrexed; first compound 1.265 µM) | relative viability (FH535 + Bortezomib; first compound 0.04 µM) | relative viability (FH535 + Bortezomib; first compound 0.1265 µM) | relative viability (FH535 + Bortezomib; first compound 0.4 µM) | relative viability (FH535 + Bortezomib; first compound 1.265 µM) | relative viability (FH535 + Tozasertib; first compound 0.04 µM) | relative viability (FH535 + Tozasertib; first compound 0.1265 µM) | relative viability (FH535 + Tozasertib; first compound 0.4 µM) | relative viability (FH535 + Tozasertib; first compound 1.265 µM) | relative viability (FH535 + Linsitinib; first compound 0.04 µM) | relative viability (FH535 + Linsitinib; first compound 0.1265 µM) | relative viability (FH535 + Linsitinib; first compound 0.4 µM) | relative viability (FH535 + Linsitinib; first compound 1.265 µM)
NCI-H2085 | 0.687 | 0.65 | 0.585 | 0.451 | 0.926 | 1.02 | 0.804 | 0.677 | 1.14 | 0.917 | 0.977 | 0.819 | 0.845 | 0.784 | 0.726 | 0.522 | 0.858 | 0.924 | 0.892 | 0.724
BEN | 0.231 | 0.25 | 0.263 | 0.221 | 0.708 | 0.755 | 0.638 | 0.613 | 0.755 | 0.615 | 0.647 | 0.475 | 0.547 | 0.483 | 0.483 | 0.487 | 0.811 | 0.976 | 0.918 | 0.508
NCI-H661 | 0.302 | 0.294 | 0.276 | 0.234 | 0.903 | 0.96 | 0.839 | 0.66 | 0.735 | 0.839 | 0.767 | 0.532 | 0.365 | 0.339 | 0.346 | 0.332 | 0.521 | 0.537 | 0.539 | 0.493
LCLC-103H | 0.326 | 0.286 | 0.255 | 0.262 | 0.456 | 0.48 | 0.467 | 0.52 | 0.948 | 1.01 | 0.939 | 1.01 | 0.417 | 0.521 | 0.516 | 0.453 | 1.06 | 1.09 | 1.21 | 0.868
PC-3 [JPC-3] | 0.448 | 0.405 | 0.37 | 0.372 | 1.1 | 1.11 | 0.745 | 0.652 | 0.846 | 0.848 | 0.741 | 0.713 | 0.846 | 0.901 | 0.795 | 0.513 | 0.982 | 0.924 | 0.891 | 0.676
NCI-H2228 | 0.241 | 0.377 | 0.288 | 0.224 | 0.312 | 0.364 | 0.327 | 0.341 | 0.933 | 0.81 | 0.839 | 0.829 | 0.238 | 0.244 | 0.305 | 0.215 | 0.88 | 0.668 | 0.611 | 0.385
COR-L23 | 0.423 | 0.486 | 0.342 | 0.217 | 0.188 | 0.192 | 0.2 | 0.205 | 0.845 | 1.04 | 0.816 | 0.587 | 0.183 | 0.17 | 0.185 | 0.167 | 0.926 | 0.889 | 0.722 | 0.581
NCI-H1915 | 0.339 | 0.385 | 0.309 | 0.292 | 0.472 | 0.522 | 0.498 | 0.487 | 0.955 | 0.855 | 0.986 | 0.904 | 0.38 | 0.418 | 0.429 | 0.356 | 1.08 | 1.12 | 1.08 | 0.896
